Target: Beta-3 Adrenergic Receptor (Homo sapiens (Human), UniProt P13945)
Assay: HTRF cAMP antagonist assay (IC50 determination)
Assay type: cell-based
Details: CHO-K1 cells stably expressing recombinant receptor; antagonism of isoproterenol at EC90; cAMP readout
In short: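 In this functional readout, recombinant CHO-K1 cells received compound, then isoproterenol at its EC90. After 1 h at room temperature, cAMP levels were determined by HTRF using an on-plate standard curve, and IC50 values were fitted.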

Sequence of Beta-3 Adrenergic Receptor (P13945 whole entry, species assumed): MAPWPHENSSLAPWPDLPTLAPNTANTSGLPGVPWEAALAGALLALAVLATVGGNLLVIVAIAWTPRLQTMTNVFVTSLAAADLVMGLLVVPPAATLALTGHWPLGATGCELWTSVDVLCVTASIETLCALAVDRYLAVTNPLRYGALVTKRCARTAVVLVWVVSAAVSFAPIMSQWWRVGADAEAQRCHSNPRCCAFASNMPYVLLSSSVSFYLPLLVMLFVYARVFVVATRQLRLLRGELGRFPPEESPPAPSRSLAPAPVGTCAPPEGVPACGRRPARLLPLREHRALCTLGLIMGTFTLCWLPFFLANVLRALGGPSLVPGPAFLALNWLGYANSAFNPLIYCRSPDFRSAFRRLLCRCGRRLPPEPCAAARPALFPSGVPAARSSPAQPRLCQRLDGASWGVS

Going from O=S(=O)(c1cccc(OC[C@@H](O)CNC2COC3(CCN(S(=O)(=O)c4ccc5ccccc5c4)CC3)C2)c1)C1CCCC1 (stereo partly drawn) [Compound 19, (2S)-1-(3-(cyclopentylsulfonyl)phenoxy)-3-(8-(naphthalen-2-ylsulfonyl)-1-oxa-8-azaspiro[4.5]decan-3-ylamino)propan-2-ol] to O=S(=O)(CC1CCCCC1)c1cccc(OC[C@@H](O)CNC2COC3(CCN(S(=O)(=O)c4ccc5ccccc5c4)CC3)C2)c1 (stereo partly drawn) [Compound 16, (2S)-1-(3-(cyclohexylmethylsulfonyl)phenoxy)-3-(8-(naphthalen-2-ylsulfonyl)-1-oxa-8-azaspiro[4.5]decan-3-ylamino)propan-2-ol], the IC50 rises from 66.7 nM to 133 nM (2-fold). The first is the more potent here.

Going from CC(C)(C)NCc1ccc(-c2cccc(S(=O)(=O)N3CCC4(CC3)C[C@H](NC[C@H](O)COc3cccc(S(=O)(=O)C5(CO)CC5)c3)CO4)c2)cc1 [Compound 240, (S)-1-((S)-8-(4′-((tert-butylamino)methyl)biphenyl-3-ylsulfonyl)-1-oxa-8-azaspiro[4.5]decan-3-ylamino)-3-(3-(1-(hydroxymethyl)cyclopropylsulfonyl)phenoxy)propan-2-ol] to COc1ccc(S(=O)(=O)N2CCC3(CC2)C[C@H](NC[C@H](O)COc2cccc(S(=O)(=O)C4(CO)CC4)c2)CO3)cc1-c1ccc(CN)cc1 [Compound 207, (S)-1-((S)-8-(4′-(aminomethyl)-6-methoxybiphenyl-3-ylsulfonyl)-1-oxa-8-azaspiro[4.5]decan-3-ylamino)-3-(3-(1-(hydroxymethyl)cyclopropylsulfonyl)phenoxy)propan-2-ol], the IC50 rises from 31.7 nM to 51.1 nM (1.6-fold). The first is the more potent here.

CS(=O)(=O)c1cccc(OC[C@@H](O)CNC2COC3(CCN(S(=O)(=O)c4cccc(C#N)c4)CC3)C2)c1 (stereo partly drawn) [Compound 55, 3-(3-((S)-2-hydroxy-3-(3-(methylsulfonyl)phenoxy)propylamino)-1-oxa-8-azaspiro[4.5]decan-8-ylsulfonyl)benzonitrile] and CCn1cc(-c2cccc(S(=O)(=O)N3CCC4(CC3)CC(NC[C@H](O)COc3cccc(S(C)(=O)=O)c3)CO4)c2)cn1 (stereo partly drawn) [Compound 36, (2S)-1-(8-(3-(1-ethyl-1H-pyrazol-4-yl)phenylsulfonyl)-1-oxa-8-azaspiro[4.5]decan-3-ylamino)-3-(3-(methylsulfonyl)phenoxy)propan-2-ol] are within 1.5-fold of each other in IC50: 30.5 nM for the first, 21.5 nM for the second.

CCS(=O)(=O)c1cccc(OC[C@@H](O)CN[C@H]2COC3(CCN(S(=O)(=O)c4ccc5ccccc5c4)CC3)C2)c1 [Compound 26, (S)-1-(3-(ethylsulfonyl)phenoxy)-3-((R)-8-(naphthalen-2-ylsulfonyl)-1-oxa-8-azaspiro[4.5]decan-3-ylamino)propan-2-ol] and CCS(=O)(=O)c1cccc(OC[C@@H](O)CN[C@H]2COC3(CCN(S(=O)(=O)c4cnc5ccccc5c4)CC3)C2)c1 [Compound 122, (S)-1-(3-(ethylsulfonyl)phenoxy)-3-((R)-8-(quinolin-3-ylsulfonyl)-1-oxa-8-azaspiro[4.5]decan-3-ylamino)propan-2-ol] are within 1.5-fold of each other in IC50: 5.25 nM for the first, 7.81 nM for the second.

Going from CS(=O)(=O)c1cccc(OC[C@@H](O)CNC2COC3(CCN(S(=O)(=O)c4cccc(-c5ccc(CNCC(F)(F)F)cc5)c4)CC3)C2)c1 (stereo partly drawn) [Compound 82, (2S)-1-(3-(methylsulfonyl)phenoxy)-3-(8-(4′-((2,2,2-trifluoroethylamino)methyl)biphenyl-3-ylsulfonyl)-1-oxa-8-azaspiro[4.5]decan-3-ylamino)propan-2-ol] to CS(=O)(=O)c1cccc(OC[C@@H](O)CNC2COC3(CCN(S(=O)(=O)c4cccc(-c5ccc(S(N)(=O)=O)cc5)c4)CC3)C2)c1 (stereo partly drawn) [Compound 42, 3′-(3-((S)-2-hydroxy-3-(3-(methylsulfonyl)phenoxy)propylamino)-1-oxa-8-azaspiro[4.5]decan-8-ylsulfonyl)biphenyl-4-sulfonamide], the IC50 falls from 43.2 nM to 18.7 nM (2.3-fold). The second is the more potent here.

Going from O=S(=O)(CCO)c1cccc(OC[C@@H](O)CN[C@H]2COC3(CCN(S(=O)(=O)c4ccc5c(c4)OCCC5)CC3)C2)c1 [Compound 87, (S)-1-((R)-8-(chroman-7-ylsulfonyl)-1-oxa-8-azaspiro[4.5]decan-3-ylamino)-3-(3-(2-hydroxyethylsulfonyl)phenoxy)propan-2-ol] to CC(C)(CO)S(=O)(=O)c1cccc(OC[C@@H](O)CN[C@H]2COC3(CCN(S(=O)(=O)c4ccc5ncccc5c4)CC3)C2)c1 [Compound 109, 2-(3-((S)-2-hydroxy-3-((R)-8-(quinolin-6-ylsulfonyl)-1-oxa-8-azaspiro[4.5]decan-3-ylamino)propoxy)phenylsulfonyl)-2-methylpropan-1-ol], the IC50 rises from 41.1 nM to 145 nM (3.5-fold).

Going from CC(C)(CO)S(=O)(=O)c1cccc(OC[C@@H](O)CN[C@H]2COC3(CCN(S(=O)(=O)c4cnc5ccccc5c4)CC3)C2)c1 [Compound 106, 2-(3-((S)-2-hydroxy-3-((R)-8-(quinolin-3-ylsulfonyl)-1-oxa-8-azaspiro[4.5]decan-3-ylamino)propoxy)phenylsulfonyl)-2-methylpropan-1-ol] to COCCCS(=O)(=O)c1cccc(OC[C@@H](O)CN[C@H]2COC3(CCN(S(=O)(=O)c4cnc5ccccc5c4)CC3)C2)c1 [Compound 149, (S)-1-(3-(3-methoxypropylsulfonyl)phenoxy)-3-((R)-8-(quinolin-3-ylsulfonyl)-1-oxa-8-azaspiro[4.5]decan-3-ylamino)propan-2-ol], the IC50 rises from 36.2 nM to 97.3 nM (2.7-fold). The first is the more potent here.

First: CN1CCOc2ncc(S(=O)(=O)N3CCC4(CC3)C[C@@H](NC[C@H](O)COc3cccc(S(=O)(=O)CC(N)=O)c3)CO4)cc21 [Compound 159, 2-(3-((S)-2-hydroxy-3-((R)-8-(1-methyl-2,3-dihydro-1H-pyrido[2,3-b][1,4]oxazin-7-ylsulfonyl)-1-oxa-8-azaspiro[4.5]decan-3-ylamino)propoxy)phenylsulfonyl)acetamide]
Second: O=C(O)CS(=O)(=O)c1cccc(OC[C@@H](O)CN[C@H]2COC3(CCN(S(=O)(=O)c4cnc5ccccc5c4)CC3)C2)c1 [Compound 183, 2-(3-((S)-2-hydroxy-3-((R)-8-(quinolin-3-ylsulfonyl)-1-oxa-8-azaspiro[4.5]decan-3-ylamino)propoxy)phenylsulfonyl)acetic acid]
The IC50 of the first is 9-fold lower: 178 nM for the first, 1600 nM for the second.

Compared with CC(C)S(=O)(=O)c1cccc(OC[C@@H](O)CN[C@H]2COC3(CCN(S(=O)(=O)c4cnc5cc[nH]c5c4)CC3)C2)c1 [Compound 321, (S)-1-((R)-8-(1H-pyrrolo[3,2-b]pyridin-6-ylsulfonyl)-1-oxa-8-azaspiro[4.5]decan-3-ylamino)-3-(3-(isopropylsulfonyl)phenoxy)propan-2-ol], CCn1cc(S(=O)(=O)N2CCC3(CC2)C[C@@H](NC[C@H](O)COc2cccc(S(=O)(=O)C4CC4)c2)CO3)c(=O)c2cc(C)ccc21 [Compound 317, 3-((R)-3-((S)-3-(3-(cyclopropylsulfonyl)phenoxy)-2-hydroxypropylamino)-1-oxa-8-azaspiro[4.5]decan-8-ylsulfonyl)-1-ethyl-6-methylquinolin-4(1H)-one] is 5.8-fold higher in IC50: 17.8 nM for the first, 104 nM for the second. The first is the more potent here.

For CCOc1ccc(-c2ccc(CN)cc2)cc1S(=O)(=O)N1CCC2(CC1)C[C@H](NC[C@H](O)COc1cccc(S(=O)(=O)CC(N)=O)c1)CO2 [Compound 205, 2-(3-((S)-3-((S)-8-(4′-(aminomethyl)-4-ethoxybiphenyl-3-ylsulfonyl)-1-oxa-8-azaspiro[4.5]decan-3-ylamino)-2-hydroxypropoxy)phenylsulfonyl)acetamide], the IC50 was 92.2 nM.

From US10927123B2, “Modulators of the beta-3 adrenergic receptor useful for the treatment or prevention of disorders related thereto” (Arena Pharmaceuticals, Inc., priority 2016, dated 2021)
